One assay concerns mice with CC SCI. Briefly: Assessment of neuropathic pain (mechanical, thermal, cold allodynia) in CC model. Format: in vivo, mouse. How it is done: CC SCI was administered at the T7-T8 vertebral level after exposure of T6-T9 by laminectomy. The aneurysm clip applicator was oriented in a bilateral direction and an aneurysm clip with a closing force of 24 g was applied extradurally for 60 s, as described previously (A. S. Rivlin, C. H. Tator, Effect of duration of acute spinal cord compression in a new acute cord injury model in the rat. Surg Neurol 10, 38-43 (1978):E. Esposito, I. Paterniti, E. Mazzon, T. Genovese, M. Galuppo, R. Meli, P. Bramanti, S. Cuzzocrea, MK801 attenuates secondary injury in a mouse experimental compression model of spinal cord trauma. BMC Neurosci 12, 31 (2011)).
The urinary bladders were manually emptied twice daily until bladder function was regained. Adult male C57BL6 mice (25-30 g) (Charles River, Margate, UK) were randomly allocated to either: (1), Sham (control; laminectomy but no CC SCI); (2), CC SCI+vehicle; (3), CC SCI+200 mg/kg AZD1236 (oral); (4), CC SCI+5 mg/kg AZD1236 (it). All experiments were performed with n=6 mice/group and repeated on 3 independent occasions (total=18 mice/group/test).
Mechanical allodynia was measured in mice using a series of von Frey filaments (0.25 g-15 g) applied to the plantar surface of the hind-paw by an experimenter masked to the treatment conditions and withdrawal of the paw was recorded as a positive response (F. Nasirinezhad, S. Gajavelli, B. Priddy, S. Jergova, J. Zadina, J. Sagen, Viral vectors encoding endomorphins and serine histogranin attenuate neuropathic pain symptoms after spinal cord injury in rats. Mol Pain 11, 2 (2015)).
The hair with the lowest force required to elicit a paw withdrawal response was recorded. […]
Thermal hyperalgesia was tested using established methods of plantar heat sensitivity tests described previously (S. Surey, M. Berry, A. Logan, R. Bicknell, Z. Ahmed, Differential cavitation, angiogenesis and wound-healing responses in injured mouse and rat spinal cords. Neuroscience 275, 62-80 (2014)). […] The reaction time of paw withdrawal was recorded for five separate tests for each hind limb with a 30-s interval before re-testing on the same paw. […]
Cold allodynia was measured by an experimenter masked to the treatment conditions as the number of foot withdrawal responses after application of an acetone drop to the plantar surface of the paw (F. Nasirinezhad, S. Gajavelli, B. Priddy, S. Jergova, J. Zadina, J. Sagen, Viral vectors encoding endomorphins and serine histogranin attenuate neuropathic pain symptoms after spinal cord injury in rats. Mol Pain 11, 2 (2015)). Testing was repeated five times with an interval of 5 min between each test and the response frequency to acetone was expressed as a percent response frequency ([number of paw withdrawals/number of trials]×100).

For assay [1], the system named is mice with DC crush injury. Briefly: Horizontal ladder test (locomotor function) after DC injury in mice. It counts as in vivo, mouse. How it is done: Functional testing after DC lesion and treatment was carried out as described previously (N. D. Fagoe, C. L. Attwell, R. Eggers, L. Tuinenbreijer, D. Kouwenhoven, J. Verhaagen, M. R. Mason, Evaluation of Five Tests for Sensitivity to Functional Deficits following Cervical or Thoracic Dorsal Column Transection in the Rat. PLoS One 11, e0150141 (2016)).
Briefly, animals (n=18/group) were first trained to master traversing a horizontal ladder for 1 w before functional testing. Baseline parameters were established by performing tests at 2-3d before injury. Animals were then tested at 2d, 1 w, 2 w, 3 w, 4 w, 5 w and 6 w after DC injury+treatment. Experiments were performed by an observer masked to the treatment conditions in the same order and time of day with each test performed for 3 individual trials.
Horizontal ladder test: This tests the animals locomotor function and is performed on a 0.9-meter-long horizontal ladder with a diameter of 15.5 cm and randomly adjusted rungs with variable gaps of 3.5-5.0 cm. Animals were assessed traversing the ladder and the left and right rear paw slips were recorded along with the total number of steps and the mean error rate as: the number of slips/total number of steps.

The values that follow come from patent US20230255943A1, “MMP-9 AND MMP-12 INHIBITION FOR TREATING SPINAL CORD INJURY OR RELATED INJURY TO NEUROLOGICAL TISSUE” (The University of Birmingham, priority 2020, published 2023).

Consider `C[C@]1(CS(=O)(=O)N2CC=C(C#Cc3cnc(C4CC4)nc3)CC2)NC(=O)NC1=O` [AZD1236], for which, in the assay on mice with CC SCI (oral delivery), the “cold allodynia, improvement” value was > 80 % of sham-treated controls; the “mechanical allodynia, improvement” value is recorded as > 80 % of sham-treated controls; the “thermal allodynia, improvement” value was > 80 % of sham-treated controls. In addition, the “improvements in mechanical, thermal and cold allodynia vs pregabalin and gabapentin” value in the assay on mice with CC SCI (pregabalin 30 mg/kg, gabapentin 100 mg/kg) is on record as “significantly better”. In assay [1] (optimal doses, 24 h delay vs immediate), the “locomotor function, 24-h delayed treatment” value is reported as “equally as effective as immediate delivery”. Further, the “improvement in locomotor function” value in assay [1] (oral) is reported as 85%. Further, the “mean error ratio, ladder crossing test” value in assay [1] (oral, by 2 weeks after injury) is “indistinguishable from sham-treated animals”.
